Reference: patent US5863937A, “Pharmaceutical compositions” (BTG International Limited, priority 1993, dated 1999)
In brackets after ≈: the same amount, converted by molar mass.

Key:
Experiment in all cases: MIC, broth serial dilution in liquid YNB medium
[1] = system: C. albicans ATTC 26278; assay type: cell-based, Candida albicans; settings: 30° C., 24 hours; for minimum inhibiting concentration (MIC), C. albicans ATTC 26278: YNB-Difco medium, 200 μg/ml sodium glutamate, 10^5 cells/ml; for minimum inhibiting concentration (MIC) against Candida albicans ATCC 26278: liquid YNB medium, monosodium glutamate 200 μg/ml
Protocol: The antifungal activity of the compounds has been determined by the serial dilution method in a liquid YNB (Yeast Nitrogen Base) medium containing monosodium glutamate at a concentration of 200 μg/ml, with a temperature of 30° C. and an incubation time of 24 hours.
(§1) The minimum inhibiting concentrations (MIC) in mg/ml were determined for the compounds of Examples 1, 2, 7, 8, 12 and 13 against various Candida sp. using the broth serial dilution method of Milewski et al., Drugs Exp. Clin. Res., 1988, 14, 461. A liquid Yeast Nitrogen Base (YNB)-Difco medium containing 200 μg/ml sodium glutamate was used with a content of 10^5 cells/ml at a temperature of 30° C. and with an incubation time of 24 hours.

[2] = system: C. albicans 2043; assay type: cell-based, Candida albicans; settings: YNB-Difco medium, 200 μg/ml sodium glutamate, 10^5 cells/ml, 30° C., 24 hours
Protocol: as §1

[3] = system: C. glabrata; assay type: cell-based, Candida glabrata; settings: YNB-Difco medium, 200 μg/ml sodium glutamate, 10^5 cells/ml, 30° C., 24 hours
Protocol: as §1

[4] = system: C. krusei; assay type: cell-based, Candida krusei; settings: YNB-Difco medium, 200 μg/ml sodium glutamate, 10^5 cells/ml, 30° C., 24 hours
Protocol: as §1

[5] = system: C. famata 1940; assay type: cell-based, Candida famata; settings: YNB-Difco medium, 200 μg/ml sodium glutamate, 10^5 cells/ml, 30° C., 24 hours
Protocol: as §1

[6] = listed as N^2 -L-norvalyl-N^3-trans-2,3-epoxysuccinamoyl-L-2,3-diaminopropanoic acid in th

Structure (SMILES) | minimum inhibiting concentration (MIC), C. albicans ATTC 26278 [1] | minimum inhibiting concentration (MIC) against Candida albicans ATCC 26278 [1] | minimum inhibiting concentration (MIC), C. albicans 2043 [2] | minimum inhibiting concentration (MIC), C. glabrata [3] | minimum inhibiting concentration (MIC), C. krusei [4] | minimum inhibiting concentration (MIC), C. famata 1940 [5] | minimum inhibiting concentration (MIC) against Candida albicans ATCC 26278 [1, 6]
C[C@H](N)C(=O)N[C@@H](CNC(=O)[C@@H]1O[C@H]1C(N)=O)C(=O)O (racemic) [Ala--DL--EADP, N^2 -L-alanyl-N^3 -DL-trans-2,3-epoxysuccinamoyl-L-2,3-diaminopropanoic acid, reference compound] | 1200 µg/mL (≈ 4160 µM) | 1.2 µg/mL (≈ 4.16 µM) | 1000 µg/mL (≈ 3470 µM) | 1500 µg/mL (≈ 5200 µM) |  |  | 
CCC[C@H](NC(=O)[C@@H](N)CNC(=O)[C@@H]1O[C@H]1C(N)=O)C(=O)O (racemic) [DL--EADP--Nva, N^3 -DL-trans-2,3-Epoxysuccinamoyl-L-2,3-diaminopropionyl-L-norvaline] | 500 µg/mL (≈ 1580 µM) |  | 750 µg/mL (≈ 2370 µM) | 1250 µg/mL (≈ 3950 µM) | 1000 µg/mL (≈ 3160 µM) | 750 µg/mL (≈ 2370 µM) | 
CCC[C@H](NC(=O)[C@@H](N)CCCCN)C(=O)N[C@@H](CNC(=O)[C@@H]1O[C@H]1C(N)=O)C(=O)O (racemic) [Lys--Nva--DL--EADP, N^2 -L-Lysyl-L-norvalyl-N^3 -DL-trans-2,3-epoxysuccinamoyl-L-2,3-diaminopropanoic acid] | 500 µg/mL (≈ 1120 µM) |  | 500 µg/mL (≈ 1120 µM) | 750 µg/mL (≈ 1690 µM) | 1500 µg/mL (≈ 3370 µM) | 1000 µg/mL (≈ 2250 µM) | 
CCC[C@H](N)C(=O)N[C@@H](CNC(=O)[C@@H]1O[C@H]1C(N)=O)C(=O)O (racemic) [Nva--DL--EADP, N^2 -L-Norvalyl-N^3 -DL-trans-2,3-epoxysuccinamoyl-L-2,3-diaminopropanoic acid] | 250 µg/mL (≈ 790 µM) |  | 250 µg/mL (≈ 790 µM) | 750 µg/mL (≈ 2370 µM) | 350 µg/mL (≈ 1110 µM) | 500 µg/mL (≈ 1580 µM) | 0.25 µg/mL (≈ 0.79 µM)
CCC[C@H](NC(=O)[C@@H](N)CNC(=O)[C@@H]1O[C@H]1C(N)=O)C(=O)O (relative stereo) [EADP--Nva, N^3 -D-trans-2,3-Epoxysuccinamoyl-L-2,3-diaminopropionyl-L-norvaline] | 400 µg/mL (≈ 1260 µM) |  | 500 µg/mL (≈ 1580 µM) | 1000 µg/mL (≈ 3160 µM) | 800 µg/mL (≈ 2530 µM) | 500 µg/mL (≈ 1580 µM) | 
CCC[C@H](NC(=O)[C@@H](N)CCCCN)C(=O)N[C@@H](CNC(=O)[C@@H]1O[C@H]1C(N)=O)C(=O)O (relative stereo) [Lys--Nva--EADP, N^2 -L-Lysyl-L-norvalyl-N^3 -D-trans-2,3-epoxysuccinamoyl-L-2,3-diaminopropanoic acid] | 200 µg/mL (≈ 450 µM) |  | 250 µg/mL (≈ 562 µM) | 500 µg/mL (≈ 1120 µM) | 750 µg/mL (≈ 1690 µM) | 500 µg/mL (≈ 1120 µM) | 
CCC[C@H](N)C(=O)N[C@@H](CNC(=O)[C@@H]1O[C@H]1C(N)=O)C(=O)O (relative stereo) [Nva--EADP, N^2 -L-Norvalyl-N^3 -D-trans-2,3-epoxysuccinamoyl-L-2,3-diaminopropanoic acid] | 150 µg/mL (≈ 474 µM) |  | 100 µg/mL (≈ 316 µM) | 500 µg/mL (≈ 1580 µM) | 350 µg/mL (≈ 1110 µM) | 350 µg/mL (≈ 1110 µM) | 0.15 µg/mL (≈ 0.474 µM)
